# Measured values: patent publication US20210300832A1, “Micronutrient Concentrate and use thereof” (FINE AGROCHEMICALS LIMITED, priority 2018, published 2021)
# Like-named read-outs stand apart in the source and are kept apart here.
# Test: Solubility test of metal salts/chelates in glycol and other solvents
# Protocol: The following mixtures were prepared from anhydrous copper-EDTA and the solvents described below.
# Each time 1,2-propanediol was used as solvent. EDTA is ethylene-diamine tetra-acetic acid; DTPA is diethylenetriaminepentaacetic acid. […]
# [1] = 1 wt % Cu.EDTA in the named solvent, same procedure as examples 1-9
Structure (SMILES),clear solution with 1 wt % Cu.EDTA (comparison solvents),clear solution with 1 wt % Cu.EDTA (comparison solvents) [1]
C[S+](C)[O-] [DMSO],None of these solvents were able to provide a clear solution,–
CC(C)O [iso-propylalcohol],None of these solvents were able to provide a clear solution,–
CC(N)CO (centres unmarked) [2-aminopropanol],None of these solvents were able to provide a clear solution,–
"OCCCCO [1,4-butanediol]",–,None of these solvents were able to provide a clear solution
CC(C)=O [acetone],–,None of these solvents were able to provide a clear solution
